Values joined by “and” are separate entries in the source; they are usually repeats but may differ in a detail not shown here. Equal entries are not always repeated.
Columns and labels:
[1] = tested on: NLRP3-inflammasome; experiment: In vitro stimulation of porcine PBMCs with LPS and ATP, IL-1β release; assay type: cell-based; settings: porcine PBMCs and whole blood, LPS 1 µg/mL 3 h, then 5 mM ATP 1 h
Experimental: To confirm the ability of IZD334 to effectively attenuate porcine NLRP3-inflammasome signaling, we used a previously standardized study protocol. In short, porcine peripheral blood mononuclear cells (PBMCs) were isolated from healthy porcine animals. Whole blood samples and isolated PBMCs were stimulated with lipopolysaccharide (LPS) (1 µg/mL, L4516, Sigma-Aldrich, St. Louis, MO, USA) and increasing concentrations of IZD334. After three h of incubation, 5 mM adenosine triphosphate (ATP) (A1852, Sigma-Aldrich, St. Louis, MO, USA) was added for 1 h to induce inflammasome activation. IL-1β release was measured in the supernatant with a Luminex Immunoasssay specific for porcine IL-1β (EPX01A-66048-901, ProcartaTM Simplex, eBioscience, ThermoFisher, San Diego, CA, USA).
In short, porcine peripheral blood mononuclear cells (PBMCs) were isolated from healthy porcine animals using Ficoll density-gradient centrifugation. Whole blood samples and isolated PBMCs were stimulated with lipopolysaccharide (LPS) (1 µg/mL, L4516, Sigma-Aldrich, St. Louis, MO, USA) and increasing concentrations of IZD334 (top concentration of 10 µM with an 8-point half-log dilution). […] IL-1β release was measured in the supernatant with a Luminex Immunoasssay specific for porcine IL-1β (ProcartaTM Simplex, eBioscience, San Diego, CA, USA).

[2] = tested on: pig model of myocardial infarction; experiment: In vivo MI study: cardiac volumes and function by cardiac magnetic resonance; set-up: species or system pigs; settings: CMR, 10 mg/kg IV loading dose, 7 days after MI
Experimental: (§1) Oral treatment was continued for six days. […] Animals were sacrificed by exsanguination under anesthesia.
Animals were placed on the CMR table in a supine position, under continuous sedation as described above. Steady-state free precession (SSFP) short axis images from the left ventricle (LV) base through the LV apex were used for the quantification of LV volumes, ejection fraction (EF), and mass. Imaging was performed using a respiratory-corrected, cardiac-gated SSFP in sequence. CMR images were anonymized and analyzed offline using MedisSuite (Medis Medical Imaging Systems, version 3.1, Leiden, The Netherlands).

[3] = tested on: pig model of myocardial infarction; experiment: In vivo MI study: serological and histological read-outs; set-up: species or system pigs; settings: 1, 3, 10 mg/kg groups
Experimental: Circulating leukocyte numbers at different time points after reperfusion were measured by whole-blood analysis using an automated hematological cell-counter (Cell-Dyn Sapphire, Abbott, Santa Clara, CA, USA). Plasma samples were obtained by whole-blood centrifugation at 1850× g and were immediately stored at −80 °C. C-reactive protein (CRP) levels were measured using solid phase DuoSet sandwich ELISA (DY1707, R&D Systems, Minneapolis, MN, USA) according to the manufacturer’s protocol. Troponin I levels were measured using a clinical chemistry analyzer (AU5811, Beckman Coulter, Woerden, The Netherlands). Histological analysis of collagen, myocardial immune cells, neutrophils, and monocyte infiltration is described in the Appendix A.
Infarcted and border zoned myocardial tissues were collected, and protein was isolated using a Roche protein isolation kit (cOmplete™ Lysis-M EDTA-free, Roche, Basel, Switzerland). IL-1β protein was measured with a Luminex Immunoassay specific for pig IL-1β (ProcartaPlex Pig IL-1β simplex Cat# EXP01A-66048-901 Invitrogen, Thermo Fisher Scientific, MA, USA) and corrected for total protein. For further histological analysis, infarcted and BZ myocardial tissue was processed, paraffin-imbedded, and cut into 5 µm sections after being conserved in 4% paraformaldehyde for 7 days. Cell nuclei were stained using hematoxylin, and area of cell infiltration was counted for each pig in 5 regions close to fibrotic areas in the infarct zone using Olympus CellSens software. Collagen was visualized using Picosirus Red staining (Abcam). The percentage of collagen was quantified using ImageJ software (1.47v).
Neutrophil infiltration in myocardial tissue was quantified in paraffin-embedded histological biopsies that were conserved in 4% formaldehyde for at least 7 days with a monoclonal mouse antibody against porcine neutrophils (Clone PM1, BMA Biomedicals, Augst, Switzerland) for 60 min and secondary incubation with Brightvision Poly-AP-anti-mouse (ImmunoLogic, Duiven, The Netherlands) for 30 min followed by development with liquid permanent red.
Monocyte infiltration was quantified in histological slides of myocardial tissue (paraffin and fresh frozen slides, respectively) using a monoclonal mouse anti-pig antibody against CD107a (Clone JM2E5, Bio-Rad, Kidlington, UK) or a mouse monoclonal antibody against CD14 (Ab23919, Abcam, Cambridge, UK); 60 min of incubation was followed by Brightvision Poly-AP-anti-mouse (ImmunoLogic, Duiven, The Netherlands) for 30 min and development with liquid permanent red.

[4] = tested on: pig model of myocardial infarction; experiment: In vivo MI study: regional cardiac function and dobutamine echocardiography; set-up: species or system pigs; settings: high-dose group (10 mg/kg), 7 days follow-up
Source text: as §1
Images were made using a X7-2T transducer on an iE33 ultrasound device (Philips, Eindhoven, The Netherlands). The pig was placed in the right lateral position, and the echo probe was inserted 50–60 cm into the esophagus. We used the 3D full volume option and temporarily interrupted mechanical ventilation to assess LV geometry and function. On day 7 we additionally obtained dobutamine stress-echocardiography to assess regional cardiac function. Images were analyzed in a blinded fashion with validated software, QLab 10.7 (Philips, Eindhoven, The Netherlands).

[5] = tested on: pig model of myocardial infarction; experiment: In vivo MI study: infarct size by Evans Blue TTC double staining; settings: 10 mg/kg IV loading dose, 7 days after MI
Experimental: All animal experiments and analyses were performed in a blinded, randomized fashion. Thirty female pigs were subjected to closed-chest LAD coronary artery balloon occlusion for 75 min followed by 7 days of reperfusion. […] The control (PBS) group received an oral placebo. Oral treatment was continued for six days. All pigs underwent transthoracic and three-dimensional transesophageal echocardiography before induction of ischemia and after 7 days. Furthermore, on day 7, cardiac magnetic resonance (CMR) imaging was performed. Subsequently, the LAD was occluded at the exact same site as during infarct induction. After verification of complete vessel occlusion, Evans Blue (E2129, Sigma-Aldrich, St. Louis, MO, USA) solution was infused in the left and right coronary arteries in order to assess the area at risk (AAR). Animals were sacrificed by exsanguination under anesthesia. The heart was excised, cut into 5 slices, and incubated in 1% 2,3,5-triphenyltetrazolium chloride (TTC) (1.08380, Sigma-Aldrich, St. Louis, MO, USA) in 37 degrees 0.9% NaCl for 15 min to discriminate between infarct tissue and viable myocardium. Each slice was photographed at the basal and apical side with a ruler and analyzed with ImageJ software (NIH, Bethesda, MD, USA).

[6] = then 1 mg/kg oral once daily, n = 6
[7] = then 3 mg/kg oral once daily, n = 7
[8] = then 10 mg/kg oral once daily, n = 7
[9] = infarct tissue, 7 days after MI
[10] = myocardial tissue, 7 days after MI
[11] = then 3 mg/kg oral once daily, n = 6

CCN1CCC(S(=O)(=O)[N-]C(=O)Nc2c3c(cc4c2CCC4)CCC3)CC1.[K+] [IZD334]
IL-1β release [1]: dose-dependently reduced IL-1β release | EDV [2, 6]: 150 ± 26 mL and 149.6 ± 26.2 mL | EF% [2, 6]: 49.9 ± 6.1% | ESV [2, 6]: 72 ± 19 mL and 71.5 ± 18.7 mL | EDV [2, 7]: 151 ± 8 mL and 151.4 ± 7.6 mL | EF% [2, 7]: 42.7 ± 3.8% | ESV [2, 7]: 87 ± 8 mL and 86.8 ± 8.2 mL | EDV [2, 8]: 144 ± 22 mL and 144.0 ± 22.0 mL | EF% [2, 8]: 44.9 ± 6.4% | ESV [2, 8]: 80 ± 19 mL and 80.0 ± 18.9 mL | CRP levels versus placebo ([3]; any time point during 7-day follow-up): No significant difference | Systemic troponin I levels versus placebo ([3]; 7-day follow-up): trends were similar between the treatment groups | Total leukocyte numbers versus placebo ([3]; circulating, 7-day follow-up): did not differ between groups | neutrophil counts versus placebo ([3]; circulating, 7-day follow-up): did not differ between groups | Intra-myocardial IL-1β levels versus placebo ([3]; infarct and border zone, 7 days after MI): without any difference among treatment arms | collagen formation (histology) versus placebo [3, 9]: no differences between the groups | total myocardial immune cell infiltration (histology) versus placebo [3, 9]: no differences between the groups | monocyte infiltration (histology) versus placebo [3, 10]: no differences between the groups | neutrophil infiltration (histology) versus placebo [3, 10]: no differences between the groups | Fractional area changes at mitral, mid-ventricular, and apical levels versus placebo ([4]; data not shown): equal between groups | Septal and inferolateral systolic wall thickness and thickening versus placebo ([4]; mid-ventricular level): did not differ between these groups | AAR/LV ± SD [5, 6]: 23.5 ± 3.2% | IS/AAR ± SD [5, 6]: 75.5 ± 7.3% and 75.5% | IS/LV ± SD [5, 6]: 17.7 ± 6.3% | AAR/LV ± SD [5, 11]: 26.0 ± 1.9% | IS/AAR ± SD [5, 11]: 80.3 ± 3.9% | IS/LV ± SD [5, 7]: 20.5 ± 2.2% | AAR/LV ± SD [5, 8]: 26.4 ± 6.6% | IS/AAR ± SD [5, 8]: 78.2 ± 8.0% and 78.2% | IS/LV ± SD [5, 8]: 19.3 ± 2.9%

Source: publication PMC9775177, “NLRP3-Inflammasome Inhibition with IZD334 Does Not Reduce Cardiac Damage in a Pig Model of Myocardial Infarction” (Biomedicines, 2022)
